Measured values: patent US12648933B2, “Pharmaceutical preparation” (KOWA COMPANY, LTD., priority 2018, dated 2026)
Entries after “also recorded” stand apart in the source; their conditions may differ.

Test: Examination on Stability (storage at 60° C. and 80% RH for 21 days, state of sample)
Assay type: physicochemical
Settings: glass vessel with lid opened (1-1 to 1-3) or closed glass bottle = tight package (1-4)
From the text: Examination on Stability […] […] Pemafibrate as it was placed in a glass vessel with a lid opened and labeled as Sample 1-1. […] Ethylcellulose ([…] Co., Ltd.) was mixed with pemafibrate in a ratio of 1 part by mass to 1 part by mass of pemafibrate to obtain a mixture. […] Ethylcellulose ([…] Co., Ltd.) was mixed with pemafibrate in a ratio of 1 part by mass to 1 part by mass of pemafibrate to obtain a mixture.

State of mixture, immediately after the start of storage (start of storage): White powder
Compound: CC[C@@H](Oc1cccc(CN(CCCOc2ccc(OC)cc2)c2nc3ccccc3o2)c1)C(=O)O [Sample 1-1, (2R)-2-[3-([1,3-Benzoxazol-2-yl[3-(4-methoxyphenoxy)propyl]amino]methyl)phenoxy]butanoic acid]
State of mixture, 21 days later (after 21 days of storage): maintained the same state; also recorded: White powder
